From US20230103791A1 (GLAXOSMITHKLINE INTELLECTUAL PROPERTY DEVELOPMENT LIMITED, priority 2019, published 2023)
Where two headings read alike, the source gives them in different places.

Biological target: T1, human Nav1.8 (Homo sapiens, UniProt Q9Y5Y9)
T1 construct: expressed in transfected cells; host or cells: HEK293 (HEK293-Nav1.8)
Experiment: Nav1.8 sodium channels assay, QPatch 48 HTX electrophysiology in HEK293-Nav1.8 cells
Format: cell-based
Method in brief: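 IC50 came from 6-8 point curves of P2 current amplitude, normalized to baseline and a positive reference, and corrected for run-down using vehicle-only wells. Automated patch clamp used HEK293-Nav1.8 (with Navβ1 and TREK1) at pH 7.4 outside and CsF-based solution inside. An 8 s inactivating step at −46 mV preceded the 0 mV test pulse, repeated at 0.07 Hz.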

[1] = at least one set of experimental runs, read-out: average pIC50 value against Nav1.8 (converted)
[2] = Table 1, HEK293-Nav1.8, QPatch 48 HTX, half inactivation state voltage protocol (V1/2), single run or average of two or more runs, read-out: Nav1.8 pIC50 (converted)

T1 sequence (Q9Y5Y9 whole entry): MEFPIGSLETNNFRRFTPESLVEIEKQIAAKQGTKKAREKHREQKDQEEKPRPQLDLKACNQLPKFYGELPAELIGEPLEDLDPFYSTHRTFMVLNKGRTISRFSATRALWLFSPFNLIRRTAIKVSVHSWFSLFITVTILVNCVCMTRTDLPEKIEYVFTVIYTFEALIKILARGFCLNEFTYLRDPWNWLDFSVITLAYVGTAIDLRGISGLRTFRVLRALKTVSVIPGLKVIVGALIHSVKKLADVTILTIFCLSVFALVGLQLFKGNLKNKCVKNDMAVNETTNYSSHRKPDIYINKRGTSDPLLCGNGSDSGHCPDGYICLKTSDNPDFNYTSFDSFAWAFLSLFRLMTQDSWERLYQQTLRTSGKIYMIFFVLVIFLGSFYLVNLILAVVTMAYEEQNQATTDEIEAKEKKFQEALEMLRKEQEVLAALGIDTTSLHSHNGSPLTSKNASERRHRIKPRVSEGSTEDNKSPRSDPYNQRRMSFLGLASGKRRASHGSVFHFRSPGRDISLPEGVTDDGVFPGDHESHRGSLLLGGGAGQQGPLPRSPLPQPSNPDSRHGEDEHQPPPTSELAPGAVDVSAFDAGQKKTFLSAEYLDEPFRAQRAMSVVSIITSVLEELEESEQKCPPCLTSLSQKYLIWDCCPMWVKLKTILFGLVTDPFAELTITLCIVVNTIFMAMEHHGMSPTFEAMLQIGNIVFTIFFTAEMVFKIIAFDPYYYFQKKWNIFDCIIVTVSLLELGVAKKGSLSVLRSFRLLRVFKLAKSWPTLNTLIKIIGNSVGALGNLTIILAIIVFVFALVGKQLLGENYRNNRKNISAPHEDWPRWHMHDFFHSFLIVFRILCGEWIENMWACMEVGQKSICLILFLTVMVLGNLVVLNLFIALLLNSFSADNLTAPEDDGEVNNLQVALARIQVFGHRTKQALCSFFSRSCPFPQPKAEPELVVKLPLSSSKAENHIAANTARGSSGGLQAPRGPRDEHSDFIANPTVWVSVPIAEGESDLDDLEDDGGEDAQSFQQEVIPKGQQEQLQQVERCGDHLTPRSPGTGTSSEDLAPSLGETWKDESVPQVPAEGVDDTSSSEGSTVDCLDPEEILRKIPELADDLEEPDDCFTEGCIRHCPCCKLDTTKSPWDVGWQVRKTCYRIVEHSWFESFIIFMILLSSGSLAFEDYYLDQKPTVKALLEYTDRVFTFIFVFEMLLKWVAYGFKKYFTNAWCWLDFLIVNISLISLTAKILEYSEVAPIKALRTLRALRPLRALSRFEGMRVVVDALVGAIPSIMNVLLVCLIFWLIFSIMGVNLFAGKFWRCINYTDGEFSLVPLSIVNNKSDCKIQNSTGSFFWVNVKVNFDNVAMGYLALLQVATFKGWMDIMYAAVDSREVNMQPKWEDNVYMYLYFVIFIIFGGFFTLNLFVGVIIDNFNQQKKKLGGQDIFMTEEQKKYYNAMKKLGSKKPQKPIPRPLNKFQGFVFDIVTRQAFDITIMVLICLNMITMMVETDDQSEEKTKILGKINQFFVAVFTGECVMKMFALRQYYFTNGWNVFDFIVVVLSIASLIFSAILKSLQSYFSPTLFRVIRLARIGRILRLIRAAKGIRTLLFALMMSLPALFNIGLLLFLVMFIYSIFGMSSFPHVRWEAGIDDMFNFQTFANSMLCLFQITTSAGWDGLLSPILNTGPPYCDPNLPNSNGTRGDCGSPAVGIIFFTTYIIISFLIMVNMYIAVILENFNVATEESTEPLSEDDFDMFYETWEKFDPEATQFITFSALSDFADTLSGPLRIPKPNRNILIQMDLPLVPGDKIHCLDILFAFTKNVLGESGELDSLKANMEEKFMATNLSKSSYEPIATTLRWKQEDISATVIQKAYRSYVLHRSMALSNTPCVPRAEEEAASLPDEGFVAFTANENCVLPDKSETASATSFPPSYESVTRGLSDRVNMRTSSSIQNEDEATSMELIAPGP
T1 sequence (Q07699 19-218 partner): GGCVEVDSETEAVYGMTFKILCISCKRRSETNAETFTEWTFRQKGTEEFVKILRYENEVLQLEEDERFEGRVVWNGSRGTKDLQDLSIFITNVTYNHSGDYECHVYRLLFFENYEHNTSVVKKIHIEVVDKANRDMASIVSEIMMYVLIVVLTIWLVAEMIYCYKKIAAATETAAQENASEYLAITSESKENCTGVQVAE

SMILES	IC50 [1] [nM]	IC50 [2] [nM]
Cc1cc2c(cc1F)C(=O)N(c1ccc(=O)[nH]c1C)CN2c1ccc(F)cc1C [Example 85, 6-fluoro-1-(4-fluoro-2-methylphenyl)-7-methyl-3-(2-methyl-6-oxo-1,6-dihydropyridin-3-yl)-2,3-dihydroquinazolin-4(1H)-one]	≤ 100	
Cc1[nH]c(=O)ccc1N1CN(c2cccc(Cl)c2C)c2ncc(C(F)(F)F)cc2C1=O [Example 175, 1-(3-chloro-2-methylphenyl)-3-(2-methyl-6-oxo-1,6-dihydropyridin-3-yl)-6-(trifluoromethyl)-2,3-dihydropyrido[2,3-d]pyrimidin-4(1H)-one]	126 to 631	
Cc1ccc(F)cc1N1CN(c2ccc(=O)[nH]c2C)C(=O)c2cc(C(F)(F)F)ccc21 [Example 118, 1-(5-fluoro-2-methylphenyl)-3-(2-methyl-6-oxo-1,6-dihydropyridin-3-yl)-6-(trifluoromethyl)-2,3-dihydroquinazolin-4(1H)-one]	126 to 631	
Cc1cc(Br)ccc1N1CN(c2ccc(=O)[nH]c2)C(=O)c2ccc(C(F)(F)F)cc21 [drawing 283, 1-(4-bromo-2-methylphenyl)-3-(6-oxo-1,6-dihydropyridin-3-yl)-7-(trifluoromethyl)-2,3-dihydroquinazolin-4(1H)-one]		316
Cc1[nH]c(=O)ccc1N1CN(c2ccc(F)c(O)c2C)c2cc(C(F)(F)F)ccc2C1=O [Example 77, 1-(4-fluoro-3-hydroxy-2-methylphenyl)-3-(2-methyl-6-oxo-1,6-dihydropyridin-3-yl)-7-(trifluoromethyl)-2,3-dihydroquinazolin-4(1H)-one]	126 to 631	
Cc1cc(F)ccc1N1CN(c2ccc(=O)[nH]c2C)C(=O)c2cc(C#N)c(OC(F)(F)F)cc21 [Example 112, 1-(4-fluoro-2-methylphenyl)-3-(2-methyl-6-oxo-1,6-dihydropyridin-3-yl)-4-oxo-7-(trifluoromethoxy)-1,2,3,4-tetrahydroquinazoline-6-carbonitrile]	≤ 100	
COc1nc2c(cc1F)C(=O)N(c1ccc(=O)[nH]c1C)CN2c1ccc(F)cc1C [Example 165, 6-fluoro-1-(4-fluoro-2-methylphenyl)-7-methoxy-3-(2-methyl-6-oxo-1,6-dihydropyridin-3-yl)-2,3-dihydropyrido[2,3-d]pyrimidin-4(1H)-one]	126 to 631	
Cc1cc(F)ccc1N1CN(c2ccc(=O)[nH]c2)C(=O)c2ccc(C#N)cc21 [drawing 279, 1-(4-fluoro-2-methylphenyl)-4-oxo-3-(6-oxo-1,6-dihydropyridin-3-yl)-1,2,3,4-tetrahydroquinazoline-7-carbonitrile]		1580
CC(=O)Nc1ccc(N2CN(c3ccc(F)cc3C)c3cc(C(F)(F)F)ccc3C2=O)cc1 [Example 6, N-(4-(1-(4-fluoro-2-methylphenyl)-4-oxo-7-(trifluoromethyl)-1,4-dihydroquinazolin-3(2H)-yl)phenyl)aceta-mide]	794 to 7940	
O=C1c2ccc(C(F)(F)F)cc2N(c2ccc(F)cc2F)CN1c1ccc(=O)[nH]c1 [drawing 278, 1-(2,4-difluorophenyl)-3-(6-oxo-1,6-dihydropyridin-3-yl)-7-(trifluoromethyl)-2,3-dihydroquinazolin-4(1H)-one]		794
Cc1cc(F)ccc1N1CN(c2ccc(=O)[nH]c2C)C(=O)c2cc(Cl)c(F)cc21 [Example 104, 6-chloro-7-fluoro-1-(4-fluoro-2-methylphenyl)-3-(2-methyl-6-oxo-1,6-dihydropyridin-3-yl)-2,3-dihydroquinazolin-4(1H)-one]	≤ 100	
Cc1[nH]c(=O)ccc1N1CN([C@H]2CC[C@H](F)C2)c2cc(C(F)(F)F)ccc2C1=O (racemic) [Example 208, 1-((1S,3S)-3-fluorocyclopentyl)-3-(2-methyl-6-oxo-1,6-dihydropyridin-3-yl)-7-(trifluoromethyl)-2,3-dihydroquinazolin-4(1H)-one and 1-((1R,3R)-3-fluorocyclopentyl)-3-(2-methyl-6-oxo-1,6-dihydropyridin-3-yl)-7-(trifluoromethyl)-2.3-dihydroquinazolin-4(1H)-one]	794 to 7940	
Cc1cc(F)ccc1N1CN(c2cccnc2)C(=O)c2ccc(C(F)(F)F)cc21 [Example 2]	794 to 7940	
Cc1cc(F)ccc1N1CN(c2ccc(=O)[nH]c2)C(=O)c2cc(C(F)(F)F)ccc21 [drawing 269, 1-(4-fluoro-2-methylphenyl)-3-(6-oxo-1,6-dihydropyridin-3-yl)-6-(trifluoromethyl)-2,3-dihydroquinazolin-4(1H)-one]		316
Cc1[nH]c(=O)ccc1N1CN([C@@H]2CCCC[C@H]2C)c2cc(C(F)(F)F)ccc2C1=O (racemic) [Example 278, Mixture of 3-(2-Methyl-6-oxo-1,6-dihydropyridin-3-yl)-1-((1R,2R)-2-methylcyclohexyl)-7-(trifluoromethyl)-2,3-dihydroquinazolin-4(1H)-one and 3-(2-Methyl-6-oxo-1,6-dihydropyridin-3-yl)-1-((1S,2S)-2-methylcyclohexyl)-7-(trifluoromethyl)-2,3-dihydroquinazolin-4(1H)-one]	≤ 100	
Cc1cc(F)ccc1N1CN(c2ccc(=O)[nH]c2C)C(=O)c2ccc(C(F)F)cc21 [Example 138, 7-(difluoromethyl)-1-(4-fluoro-2-methylphenyl)-3-(2-methyl-6-oxo-1,6-dihydropyridin-3-yl)-2,3-dihydroquinazolin-4(1H)-one]	≤ 100	
Cc1cc(F)ccc1N1c2cc(C(F)(F)F)ccc2C(=O)N(c2ccc(=O)[nH]c2)C1C (stereo not drawn) [drawing 275, 1-(4-fluoro-2-methylphenyl)-2-methyl-3-(6-oxo-1,6-dihydropyridin-3-yl)-7-(trifluoromethyl)-2,3-dihydroquinazolin-4(1H)-one]		1260
Cc1cc(F)ccc1N1CN(c2ccc(=O)[nH]c2C)C(=O)c2ccc(N(C)C)cc21 [Example 65, 7-(dimethylamino)-1-(4-fluoro-2-methylphenyl)-3-(2-methyl-6-oxo-1,6-dihydropyridin-3-yl)-2,3-dihydroquinazolin-4(1H)-one]	≤ 100	
Cc1cc(F)ccc1N1CN(c2ccc(=O)[nH]c2)C(=O)c2c1cccc2C(F)(F)F [Example 217, 1-(4-fluoro-2-methylphenyl)-3-(6-oxo-1,6-dihydropyridin-3-yl)-5-(trifluoromethyl)-2,3-dihydroquinazolin-4(1H)-one]	794 to 7940	
Cc1cc(OC(F)(F)F)ccc1N1CN(c2ccc(=O)[nH]c2C)C(=O)c2cc(Cl)c(C#N)nc21 [Example 170, 6-chloro-1-(2-methyl-4-(trifluoromethoxy)phenyl)-3-(2-methyl-6-oxo-1,6-dihydropyridin-3-yl)-4-oxo-1,2,3,4-tetra-hydropyrido[2,3-d]pyrimidine-7-carbonitrile]	≤ 100	

Second part, the molecule after the results:

IC50 [1] [nM]	IC50 [2] [nM]	SMILES
126 to 631		Cc1cc(F)ccc1N1CN(c2ccc(=O)[nH]c2C#N)C(=O)c2ccc(C(F)(F)F)cc21 [Example 154, 3-(1-(4-fluoro-2-methylphenyl)-4-oxo-7-(trifluoromethyl)-1,4-dihydroquinazolin-3(2H)-yl)-6-oxo-1,6-dihydropyridine-2-carbonitrile]
126 to 631		Cc1[nH]c(=O)ccc1N1CN(c2ccc(F)cc2F)c2cc(C(F)(F)F)ccc2C1=O [Example 155, 1-(2,4-difluorophenyl)-3-(2-methyl-6-oxo-1,6-dihydropyridin-3-yl)-7-(trifluoromethyl)-2,3-dihydroquinazolin-4(1H)-one]
≤ 100		COc1ccc(N2CN(c3ccc(=O)[nH]c3C)C(=O)c3cc(C(F)(F)F)ccc32)c(OC)c1 [Example 225, 1-(2,4-dimethoxyphenyl)-3-(2-methyl-6-oxo-1,6-dihydropyridin-3-yl)-6-(trifluoromethyl)-2,3-dihydroquinazolin-4(1H)-one]
126 to 631		Cc1cc(F)ccc1N1CN(c2ccc(=O)[nH]c2)C(=O)c2ccc(C(F)(F)F)cc21 [Example 36, 1-(4-fluoro-2-methylphenyl)-3-(6-oxo-1,6-dihydropyridin-3-yl)-7-(trifluoromethyl)-2,3-dihydroquinazolin-4(1H)-one]
126 to 631		Cc1cc(F)ccc1N1CN(c2cc(=O)[nH]n2C)C(=O)c2ccc(C(F)(F)F)cc21 [Example 92, 1-(4-fluoro-2-methylphenyl)-3-(2-methyl-5-oxo-2,5-dihydro-1H-pyrazol-3-yl)-7-(trifluoromethyl)-2,3-dihydroquinazolin-4(1H)-one]
794 to 7940		Cc1cc(F)ccc1N1CN(c2ccc(S(C)(=O)=O)cc2)C(=O)c2ccc(C(F)(F)F)cc21 [Example 13, 1-(4-fluoro-2-methylphenyl)-3-(4-(methylsulfonyl)phen-yl)-7-(trifluoromethyl)-2,3-dihydroquinazolin-4(1H)-one]
	50.1	Cc1ccc2c(c1)C(=O)N(c1ccc(=O)[nH]c1C)CN2c1ccc(F)cc1C [drawing 296, 1-(4-fluoro-2-methylphenyl)-6-methyl-3-(2-methyl-6-oxo-1,6-dihydropyridin-3-yl)-2,3-dihydroquinazolin-4(1H)-one]
	501	O=C1c2ccc(C(F)(F)F)cc2N(c2ccc(F)cc2Cl)CN1c1ccc(=O)[nH]c1 [drawing 276, 1-(2-chloro-4-fluorophenyl)-3-(6-oxo-1,6-dihydropyridin-3-yl)-7-(trifluoromethyl)-2,3-dihydroquinazolin-4(1H)-one]
≤ 100		Cc1[nH]c(=O)ccc1N1CN(c2ccc(F)cc2C(C)C)c2cc(F)c(Cl)cc2C1=O [Example 98, 6-chloro-7-fluoro-1-(4-fluoro-2-isopropylphenyl)-3-(2-methyl-6-oxo-1,6-dihydropyridin-3-yl)-2,3-dihydroquinazolin-4(1H)-one]
126 to 631		Cc1cc(F)ccc1N1CN(c2c[nH]nc2C)C(=O)c2cc(C(F)(F)F)ccc21 [Example 28, 1-(4-fluoro-2-methylphenyl)-3-(3-methyl-1H-pyrazol-4-yl)-6-(trifluoromethyl)-2,3-dihydroquinazolin-4(1H)-one]
